Earlier results as cited in patent publication US11406849B2, “Amino alcohol-containing skin cleansing composition for removing keratotic plugs from skin” (KAO CORPORATION, priority 2017, dated 2022).

| SMILES | Solubility in water |
| --- | --- |
| CC(C)(N)CO [Component (X2), 2-amino-2-methyl-1-propanol] | readily dissolved in water |
| NC(CO)(CO)CO [Component (X1), 2-amino-2-hydroxymethyl-1,3-propanediol] | readily dissolved in water |
